The text below walks through data of ChEMBL document CHEMBL3243921, “2-Pyrrolidinylideneureas, a new class of central nervous system agents” (J Med Chem, 1978).

Structures are written as SMILES. The source made the active and inactive calls.

A short description of data set [1]: Acute toxicity in po dosed mouse assessed as mortality administered as qd for 6 days measured on day 7 post last dose. Type of data set: organism-based. As to conditions: in vivo.
Data set [2] has as its system Mus musculus. The experiment in a line: Anticonvulsant activity in po dosed mouse assessed as blockade of supramaximal electroshock-induced […] seizure. Type of data set: functional. (Protection in the maximal electroshock model is a classic sign of anticonvulsant action.)
Data set [3] has as its system Mus musculus. The data set can be described thus: Muscle relaxant activity in po dosed mouse assessed as blockade of pentylenetetrazol-induced tonic extensor seizure. Type of data set: functional.
Data set [4] has as its system Mus musculus. The experiment in a line: Sedative activity in mouse assessed as increase in pentylenetetrazol-induced pseudo-convulsive threshold at 25 to 200 mg/kg, po. It is filed as functional, organism-based.
For data set [5], the system named is Mus musculus. The experiment in a line: Acute toxicity in po dosed mouse assessed as concentration required to produce 50% loss of righting reflex administered as qd for 4 days measured for 1 min post last dose. It is filed as organism-based. The conditions noted are these: in vivo.
Another data set has as its system Rattus norvegicus. The experiment in a line: Antianxiety activity in ip dosed rat assessed as effect on increase in punished responses administered qd for 5 days measured every day for 5 days. Type of data set: functional. The conditions noted are these: for minimal effective dose: 120 h, read-out: MED.
The subject of data set [6] is Mus musculus. The experiment in a line: Muscle relaxant activity in po dosed mouse assessed as increase in strychnine-induced persistant convulsive threshold. It is filed as functional.
Data set [7] can be described thus: Ratio of LD50 for po dosed mouse to PD50 for acute toxicity in po dosed mouse assessed as concentration required to produce 50% loss of righting reflex. As to conditions: in vivo. It is filed as organism-based.
Data set [8] in a line: Therapeutic index, ratio of PD50 for acute toxicity in po dosed mouse assessed as concentration required to produce 50% loss of righting reflex to MED causing antianxiety activity in ip dosed rat assessed as effect on increase in punished responses. As to conditions: in vivo, other: oral (PD50, mouse) and intraperitoneal (MED, rat), read-out: TI. It is filed as organism-based.

For data set [9], the system named is Mus musculus. The data set can be described thus: Sedative-hypnotic activity in po dosed mouse assessed as increase in pentylenetetrazol-induced persistent-convulsive threshold. It is filed as functional, organism-based.
The test system of data set [10] is Mus musculus. The data set can be described thus: Hypnotic activity in po dosed mouse assessed as increase in pentylenetetrazol-induced persistent-convulsive threshold. It is filed as functional, organism-based.
Data set [11] concerns Mus musculus. The data set can be described thus: Hypnotic activity in mouse assessed as increase in pentylenetetrazol-induced persistent-convulsive threshold up to 200 mg/kg, po. Type of data set: functional, organism-based. On the set-up: dose 200 mg/kg.
Data set [12] concerns Mus musculus. The experiment in a line: Sedative activity in mouse assessed as increase in pentylenetetrazol-induced pseudo-convulsive threshold up to 200 mg/kg, po. Type of data set: functional, organism-based. The arrangement: dose 200 mg/kg.

Consider `CN1CCC/C1=N\C(=O)Nc1cccc(C(F)(F)F)c1`, for which the LD50 at 144 h in data set [1] is over 1000 mg/kg. Also, the MED20 was found to be 76 mg/kg with Mus musculus [2] and 47 mg/kg in the data set with Mus musculus [3]. The result in the data set with Mus musculus [4] was Active. Besides, the PD50 in the data set on Mus musculus [5] was 1000 mg/kg. The minimal effective dose with Rattus norvegicus is over 25 mg/kg. Moreover, the MED25 with Mus musculus [6] amounted to 58 mg/kg.
As for `CN1CCC/C1=N\C(=O)Nc1cccc(I)c1`, the median lethal dose (LD50) at 144 h in data set [1] is over 1000 mg/kg. The values for the MED20 in the data set on Mus musculus [2] and with Mus musculus [3] were 112 mg/kg and 36 mg/kg, respectively. Further, in the data set with Mus musculus [5], the PD50 was over 820 mg/kg. In addition, the minimal effective dose in the data set on Rattus norvegicus is over 25 mg/kg. In the data set on Mus musculus [6], the MED25 was 86 mg/kg.
Turning to `COc1cccc(NC(=O)/N=C2\CCCN2C)c1`, the median lethal dose (LD50) at 144 h in data set [1] was 1200 mg/kg. Further, the selectivity ratio in data set [7] was 1.5. The MED20 with Mus musculus [2] was determined as 135 mg/kg; in the data set with Mus musculus [3] it was 68 mg/kg. Also, the result in the data set on Mus musculus [4] was Active. Further, the PD50 with Mus musculus [5] is 1390 mg/kg. In addition, the minimal effective dose with Rattus norvegicus is over 25 mg/kg. Moreover, in the data set on Mus musculus [6], the MED25 came out at 135 mg/kg.
In the case of `CN1CCC/C1=N\C(=O)Nc1cccc(F)c1`, the LD50 at 144 h in data set [1] worked out at 525 mg/kg. Further, the selectivity ratio amounted to 20 in [8] and 1 in data set [7]. Besides, the MED20 with Mus musculus [2] amounted to 200 mg/kg; with Mus musculus [3], 38 mg/kg. The PD50 in the data set with Mus musculus [5] stood at 500 mg/kg. In the data set with Rattus norvegicus, the minimal effective dose stood at 25 mg/kg. In the data set on Mus musculus [6], the MED25 came to 210 mg/kg.
Regarding `CN1CCC/C1=N\C(=O)Nc1ccccc1`, the median lethal dose (LD50) at 144 h in data set [1] is 215 mg/kg. Besides, the selectivity ratio in [8] was 15; in data set [7] it was 1. The MED20 in the data set on Mus musculus [2] was over 100 mg/kg; in the data set with Mus musculus [3], 40 mg/kg. Further, in the data set on Mus musculus [4], the result was Active. In addition, the PD50 in the data set on Mus musculus [5] was 220 mg/kg. Also, in the data set with Rattus norvegicus, the minimal effective dose was 15 mg/kg. The MED25 with Mus musculus [6] was 35 mg/kg.
For `Cc1ccccc1NC(=O)/N=C1\CCCN1C`, the outcome with Mus musculus [2], in the data set on Mus musculus [3], in the data set with Mus musculus [9], in the data set on Rattus norvegicus, in the data set with Mus musculus [6] and in the data set on Mus musculus [10] was Active.
In the case of `CN1CCC/C1=N\C(=O)Nc1ccccc1Cl`, the result in the data set with Mus musculus [2], in the data set with Mus musculus [3], in the data set on Mus musculus [9], in the data set on Rattus norvegicus, in the data set with Mus musculus [6] and with Mus musculus [10] was Active.
As to `CN1CC(c2ccccc2)C/C1=N\C(=O)Nc1ccccc1` (configuration not stated), the result with Mus musculus [2], in the data set with Mus musculus [3], in the data set with Mus musculus [9], in the data set on Rattus norvegicus, in the data set on Mus musculus [6] and in the data set on Mus musculus [10] was inactive.
Turning to `O=C(/N=C1\CCCCCN1)Nc1c(Cl)cccc1Cl`, the result in the data set with Mus musculus [2], with Mus musculus [3], with Mus musculus [9], in the data set with Rattus norvegicus, in the data set with Mus musculus [6] and with Mus musculus [10] was inactive.
For `CCC1(c2ccccc2)C(=O)NC(=O)NC1=O` [PHENOBARBITAL], the selectivity ratio in data set [7] was 3.
Take `COc1cccc(NC(=O)/N=C2\CCC(C)N2C)c1` (configuration not stated): the LD50 at 144 h in [1] stood at 1900 mg/kg. For the same compound, the selectivity ratio in data set [7] turned out to be 1.5. Also, the MED20 was determined as 135 mg/kg in the data set with Mus musculus [2] and 68 mg/kg in the data set with Mus musculus [3]. In addition, the PD50 in the data set on Mus musculus [5] came to 680 mg/kg. Moreover, the minimal effective dose in the data set on Rattus norvegicus was over 25 mg/kg. Also, the MED25 in the data set on Mus musculus [6] was 160 mg/kg.
For the compound `Cc1cccc(C)c1NC(=O)/N=C1\CCCN1C` [XILOBAM], the figures for the MED20 in the data set on Mus musculus [2] and in the data set on Mus musculus [3] were 27 mg/kg and 22 mg/kg, respectively. The result with Mus musculus [11] and in the data set with Mus musculus [12] was inactive. Moreover, the PD50 with Mus musculus [5] was determined as 230 mg/kg. The minimal effective dose in the data set with Rattus norvegicus is over 25 mg/kg. The MED25 in the data set on Mus musculus [6] worked out at 26 mg/kg.
Consider `O=C(/N=C1\CCCN1Cc1ccccc1)Nc1cccc(Cl)c1`, for which the outcome with Mus musculus [2], in the data set with Mus musculus [3], with Mus musculus [9], in the data set on Rattus norvegicus, in the data set with Mus musculus [6] and in the data set on Mus musculus [10] was inactive.
As to `CN1CC(C)(C)C/C1=N\C(=O)Nc1cccc(Cl)c1`, the result in the data set on Mus musculus [2], with Mus musculus [3], with Mus musculus [9], in the data set with Rattus norvegicus, in the data set on Mus musculus [6] and in the data set on Mus musculus [10] was inactive.
As to `CC(C)c1ccccc1NC(=O)/N=C1\CCCN1C`, the outcome in the data set with Mus musculus [2], with Mus musculus [3], in the data set on Mus musculus [9], with Rattus norvegicus, in the data set with Mus musculus [6] and in the data set on Mus musculus [10] was Active.
Turning to `Cc1cccc(C)c1NC(=O)/N=C1\CC(c2ccccc2)CN1C` (configuration not stated), the outcome in the data set with Mus musculus [2], in the data set on Mus musculus [3], with Mus musculus [9], in the data set on Rattus norvegicus, in the data set with Mus musculus [6] and with Mus musculus [10] was inactive.
As to `O=C(/N=C1\CCCN1Cc1ccccc1)Nc1c(Cl)cccc1Cl`, the result in the data set on Mus musculus [2], in the data set on Mus musculus [3], in the data set on Mus musculus [9], in the data set on Rattus norvegicus, in the data set on Mus musculus [6] and in the data set on Mus musculus [10] was inactive.
Regarding `CC1/C(=N\C(=O)Nc2ccccc2)N(C)CC1c1ccccc1` (configuration not stated), the result in the data set with Mus musculus [2], in the data set on Mus musculus [3], with Mus musculus [9], with Rattus norvegicus, with Mus musculus [6] and in the data set on Mus musculus [10] was inactive.
For the compound `CN1CCCCC/C1=N\C(=O)Nc1cccc(Cl)c1`, the result in the data set on Mus musculus [2], in the data set with Mus musculus [3], in the data set with Mus musculus [9], in the data set with Rattus norvegicus, in the data set on Mus musculus [6] and in the data set with Mus musculus [10] was inactive.
In the case of `CN1CC(c2ccccc2)C/C1=N\C(=O)Nc1cccc(Cl)c1` (configuration not stated), the result in the data set with Mus musculus [2], in the data set with Mus musculus [3], in the data set with Mus musculus [9], with Rattus norvegicus, in the data set with Mus musculus [6] and with Mus musculus [10] was inactive.
With `Cc1cccc(C)c1NC(=O)/N=C1\CCCN1Cc1ccccc1`, the result with Mus musculus [2], in the data set with Mus musculus [3], in the data set with Mus musculus [9], with Rattus norvegicus, with Mus musculus [6] and in the data set on Mus musculus [10] was inactive.
Consider `CN1CCCC/C1=N\C(=O)Nc1ccccc1`, for which the result with Mus musculus [2], in the data set with Mus musculus [3], in the data set with Mus musculus [9], in the data set on Rattus norvegicus, in the data set on Mus musculus [6] and in the data set with Mus musculus [10] was inactive.
`Cc1cccc(C)c1NC(=O)/N=C1\CCCCCN1`: the result in the data set on Mus musculus [2], with Mus musculus [3], in the data set with Mus musculus [9], in the data set with Rattus norvegicus, in the data set on Mus musculus [6] and in the data set with Mus musculus [10] was inactive.
As to `CN1CCCC/C1=N\C(=O)Nc1ccc(C(F)(F)F)cc1`, the outcome in the data set on Mus musculus [2], in the data set with Mus musculus [3], in the data set on Mus musculus [9], in the data set with Rattus norvegicus, in the data set with Mus musculus [6] and with Mus musculus [10] was inactive.
On to `O=C(/N=C1\CCCN1Cc1ccccc1)Nc1cccc(C(F)(F)F)c1`, for which the result in the data set with Mus musculus [2], in the data set on Mus musculus [3], in the data set with Mus musculus [9], with Rattus norvegicus, in the data set with Mus musculus [6] and in the data set with Mus musculus [10] was inactive.
Consider `CN1CCC/C1=N\C(=S)Nc1ccccc1`, for which the outcome in the data set with Mus musculus [2], in the data set on Mus musculus [3], in the data set with Mus musculus [9], with Rattus norvegicus, with Mus musculus [6] and in the data set on Mus musculus [10] was inactive.
As to `CCCCN1CCC/C1=N\C(=O)Nc1cccc(Cl)c1`, the result with Mus musculus [2], in the data set on Mus musculus [3], in the data set with Mus musculus [9], with Rattus norvegicus, in the data set with Mus musculus [6] and with Mus musculus [10] was inactive.

A word on the LD50: it is the dose expected to kill half of the subjects tested.
